Laboratory results: patent US20230265151A1, “GIP/GLP1 CO-AGONIST COMPOUNDS” (priority 2020, published 2023)
Like-named read-outs stand apart in the source and are kept apart here.

Assays:
Format in all cases: cell-based
hGIPR = molecular target: T1, hGIPR (Homo sapiens, UniProt P48546); experiment: Functional cAMP formation (HTRF) in HEK-293 clonal cells expressing hGIPR, 0.1% bovine casein, without or with 1.0% human serum albumin; details: for EC50: geometric mean
T1 construct: expressed in transfected cells
T1 sequence (P48546 22-466): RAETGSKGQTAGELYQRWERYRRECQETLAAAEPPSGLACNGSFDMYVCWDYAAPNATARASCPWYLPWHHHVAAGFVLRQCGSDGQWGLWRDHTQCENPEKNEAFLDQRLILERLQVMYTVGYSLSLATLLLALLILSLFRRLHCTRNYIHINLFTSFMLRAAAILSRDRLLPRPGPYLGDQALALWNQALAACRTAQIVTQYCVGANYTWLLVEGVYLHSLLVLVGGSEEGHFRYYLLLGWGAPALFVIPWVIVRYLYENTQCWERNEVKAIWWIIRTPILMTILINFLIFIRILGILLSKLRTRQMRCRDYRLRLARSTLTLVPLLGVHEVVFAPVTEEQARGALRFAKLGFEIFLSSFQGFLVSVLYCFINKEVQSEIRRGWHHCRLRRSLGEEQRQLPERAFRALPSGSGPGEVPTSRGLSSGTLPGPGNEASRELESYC
Outline: (§1)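 Cells were stimulated with peptide for 30 min at 37° C, then intracellular cAMP was measured by competitive HTRF (665/620 nm ratio) and converted to nM using a cAMP standard curve. Relative EC50 and Emax came from four-parameter logistic fits of percent maximal response against peptide concentration.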

hGCGR = molecular target: T2, hGCGR (Homo sapiens, UniProt P47871); experiment: Functional cAMP formation (HTRF) in HEK-293 clonal cells expressing hGCGR, 0.1% bovine casein, without or with 1.0% human serum albumin; details: geometric mean
T2 construct: expressed in transfected cells
T2 sequence (P47871 26-477): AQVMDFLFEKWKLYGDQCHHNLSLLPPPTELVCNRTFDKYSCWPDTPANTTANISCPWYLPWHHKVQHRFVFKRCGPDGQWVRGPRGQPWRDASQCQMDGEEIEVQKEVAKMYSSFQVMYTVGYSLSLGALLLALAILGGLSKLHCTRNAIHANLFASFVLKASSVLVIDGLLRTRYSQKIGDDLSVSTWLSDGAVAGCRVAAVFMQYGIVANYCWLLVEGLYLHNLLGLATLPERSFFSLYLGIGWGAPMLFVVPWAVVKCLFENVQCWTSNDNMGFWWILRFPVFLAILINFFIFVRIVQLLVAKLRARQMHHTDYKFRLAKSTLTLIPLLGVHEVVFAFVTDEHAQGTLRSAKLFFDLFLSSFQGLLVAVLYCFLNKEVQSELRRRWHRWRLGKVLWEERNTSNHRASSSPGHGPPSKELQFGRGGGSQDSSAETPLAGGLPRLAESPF
Outline: as §1

hGLP-1R = hGLP-1R (Homo sapiens, UniProt P43220); experiment: Functional cAMP formation (HTRF) in HEK-293 clonal cells expressing hGLP-1R, 0.1% bovine casein, without or with 1.0% human serum albumin; parameters: expressed in transfected cells; details: for EC50: geometric mean; for Emax: read-out: hGLP-1R Emax, % ± SEM
Sequence of hGLP-1R (P43220 24-463): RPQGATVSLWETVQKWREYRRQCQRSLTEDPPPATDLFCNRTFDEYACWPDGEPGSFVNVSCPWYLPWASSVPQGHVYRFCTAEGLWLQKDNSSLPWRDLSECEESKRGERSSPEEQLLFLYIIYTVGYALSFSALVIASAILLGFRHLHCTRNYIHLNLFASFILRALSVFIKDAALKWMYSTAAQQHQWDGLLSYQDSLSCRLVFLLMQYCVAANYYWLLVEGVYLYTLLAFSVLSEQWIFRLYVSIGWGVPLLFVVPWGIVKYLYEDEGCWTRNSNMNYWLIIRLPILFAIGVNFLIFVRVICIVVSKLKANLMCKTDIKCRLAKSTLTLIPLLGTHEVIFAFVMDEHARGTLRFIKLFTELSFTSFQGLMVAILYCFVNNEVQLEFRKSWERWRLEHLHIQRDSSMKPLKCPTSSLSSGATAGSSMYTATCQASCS
Outline: as §1

[1] = HEK293, 0.1% bovine casein and 1.0% human serum albumin, 37° C., percent of maximal response to GIP(1-42)NH2, read-out: hGIPR Emax, % ± SEM
[2] = HEK293, percent of maximal response to GIP(1-42)NH2, 37° C., 0.1% bovine casein, arithmetic mean, read-out: hGIPR Emax, % ± SEM
[3] = cAMP, incubated at 37° C., 0.1% bovine casein (no human serum albumin), read-out: hGIPR EC50, nM (SEM, n)
[4] = 0.1% bovine casein and 1.0% human serum albumin, 37° C., read-out: hGCGR EC50, nM (SEM, n)
[5] = cAMP, incubated at 37° C., 0.1% bovine casein (no human serum albumin), read-out: hGCGR EC50, nM (SEM, n)
[6] = 0.1% bovine casein and 1.0% human serum albumin, 37° C., read-out: hGLP-1R EC50, nM (SEM, n)
[7] = HEK293, 0.1% bovine casein and 1.0% human serum albumin, 37° C., percent of maximal response to GLP-1(7-36)NH2
[8] = 0.1% bovine casein and 1.0% human serum albumin, 37° C., read-out: hGIPR EC50, nM (SEM, n)
[9] = HEK293, percent of maximal response to GLP-1(7-36)NH2, 37° C., 0.1% bovine casein, arithmetic mean
[10] = cAMP, incubated at 37° C., 0.1% bovine casein (no human serum albumin), read-out: hGLP-1R EC50, nM (SEM, n)

SMILES | Emax (hGIPR; [1]) [%] | Emax (hGIPR; [2]) [%] | EC50 (hGIPR; [3]) [nM] | EC50 (hGCGR; [4]) [nM] | EC50 (hGCGR; [5]) [nM] | EC50 (hGLP-1R; [6]) [nM] | Emax (hGLP-1R; [7]) [%] | EC50 (hGIPR; [8]) [nM] | Emax (hGLP-1R; [9]) [%] | EC50 (hGLP-1R; [10]) [nM] | Emax (hGIPR; HEK293, read-out: hGIPR Emax, % ± SEM, 0.1% bovine casein and 1.0% human serum albumin, 37° C., percent of maximal response to GIP(1-42)NH2) [%] | Emax (hGIPR; HEK293, read-out: hGIPR Emax, % ± SEM, percent of maximal response to GIP(1-42)NH2, 37° C., 0.1% bovine casein, arithmetic mean) [%] | EC50 (hGIPR; hGIPR EC50, nM (SEM, n), 0.1% bovine casein and 1.0% human serum albumin, 37° C.) [nM] | EC50 (hGIPR; hGIPR EC50, nM (SEM, n), cAMP, incubated at 37° C., 0.1% bovine casein (no human serum albumin)) [nM] | EC50 (hGCGR; hGCGR EC50, nM (SEM, n), 0.1% bovine casein and 1.0% human serum albumin, 37° C.) [nM] | EC50 (hGCGR; hGCGR EC50, nM (SEM, n), cAMP, incubated at 37° C., 0.1% bovine casein (no human serum albumin)) [nM] | EC50 (hGLP-1R; hGLP-1R EC50, nM (SEM, n), 0.1% bovine casein and 1.0% human serum albumin, 37° C.) [nM]
CC[C@H](C)[C@H](NC(=O)[C@H](CC(C)C)NC(=O)[C@](C)(Cc1ccc(O)cc1)NC(=O)[C@@H](CCC(=O)O)NC(=O)[C@@H](NC(=O)[C@H](Cc1cccc2ccccc12)NC(=O)[C@H](CCC(=O)O)NC(=O)C(C)(C)NC(=O)[C@H](CCC(N)=O)NC(=O)[C@H](C)NC(=O)[C@H](CCCCNC(=O)COCCOCCNC(=O)COCCOCCNC(=O)CC[C@H](NC(=O)CCCCCCCCCCCCC(=O)O)C(=O)O)NC(=O)[C@H](CCCN)NC(=O)[C@H](CC(=O)O)NC(=O)[C@H](CC(C)C)NC(=O)[C@](C)(CC(C)C)NC(=O)[C@@H](NC(=O)[C@H](CO)NC(=O)[C@H](Cc1ccncc1)NC(=O)[C@H](CC(=O)O)NC(=O)[C@H](CO)NC(=O)[C@@H](NC(=O)[C@](C)(Cc1ccccc1F)NC(=O)[C@@H](NC(=O)CNC(=O)[C@H](CCC(=O)O)NC(=O)C(C)(C)NC(=O)[C@@H](N)Cc1ccc(O)cc1)[C@@H](C)O)[C@@H](C)O)[C@@H](C)CC)[C@@H](C)CC)C(=O)N[C@@H](CCC(=O)O)C(=O)NCC(=O)NCC(=O)N[C@@H](CCCCNC(=O)COCCOCCNC(=O)COCCOCCNC(=O)CC[C@H](NC(=O)CCCCCCCCCCCCC(=O)O)C(=O)O)C(=O)N[C@@H](CO)C(=O)N[C@@H](CO)C(=O)NCC(=O)N[C@@H](C)C(=O)N1CCC[C@H]1C(=O)N1CCC[C@H]1C(=O)N1CCC[C@H]1C(=O)N[C@@H](CO)C(N)=O [Example 66] | 90.6 ± 3.37 | 93.5 ± 1.39 | 0.0168 | > 9950 | > 9950 | 27 | 93 ± 2.36 |  |  |  |  |  |  |  |  |  | 
CC[C@H](C)[C@H](NC(=O)[C@H](CC(C)C)NC(=O)[C@H](CCCCNC(=O)COCCOCCNC(=O)COCCOCCNC(=O)CC[C@H](NC(=O)CCCc1ccc(C(C)(C)C)cc1)C(=O)O)NC(=O)[C@@H](CCC(=O)O)NC(=O)[C@@H](NC(=O)[C@H](Cc1ccccc1)NC(=O)[C@H](CCC(=O)O)NC(=O)C(C)(C)NC(=O)[C@H](CCC(N)=O)NC(=O)[C@H](C)NC(=O)[C@H](CCCCNC(=O)COCCOCCNC(=O)COCCOCCNC(=O)CC[C@H](NC(=O)CCCc1ccc(C(C)(C)C)cc1)C(=O)O)NC(=O)[C@H](CCCN)NC(=O)[C@H](CC(=O)O)NC(=O)[C@H](CC(C)C)NC(=O)[C@](C)(CC(C)C)NC(=O)[C@@H](NC(=O)[C@H](CO)NC(=O)[C@H](Cc1ccncc1)NC(=O)[C@H](CC(=O)O)NC(=O)[C@H](CO)NC(=O)[C@@H](NC(=O)[C@](C)(Cc1ccccc1F)NC(=O)[C@@H](NC(=O)CNC(=O)[C@H](CCC(=O)O)NC(=O)C(C)(C)NC(=O)[C@@H](N)Cc1ccc(O)cc1)[C@@H](C)O)[C@@H](C)O)[C@@H](C)CC)[C@@H](C)CC)C(=O)N[C@@H](CCC(=O)O)C(=O)NCC(=O)NCC(=O)N1CCC[C@H]1C(=O)N[C@@H](CO)C(=O)N[C@@H](CO)C(=O)NCC(=O)N[C@@H](C)C(=O)N1CCC[C@H]1C(=O)N1CCC[C@H]1C(=O)N1CCC[C@H]1C(=O)N[C@@H](CO)C(N)=O [Example 67] | 91.9 | 95 |  | > 9950 | > 9950 | 12 |  | 0.0417 | 91.7 | 2.63 |  |  |  |  |  |  | 
CC[C@H](C)[C@H](NC(=O)[C@H](CC(C)C)NC(=O)[C@H](CCCCNC(=O)COCCOCCNC(=O)COCCOCCNC(=O)CC[C@H](NC(=O)CCCc1ccc(C(C)(C)C)cc1)C(=O)O)NC(=O)[C@H](CCC(=O)O)NC(=O)[C@@H](NC(=O)[C@H](Cc1ccccc1)NC(=O)[C@H](CCC(=O)O)NC(=O)C(C)(C)NC(=O)[C@H](CCC(N)=O)NC(=O)[C@H](C)NC(=O)[C@H](CCCCNC(=O)COCCOCCNC(=O)COCCOCCNC(=O)CC[C@H](NC(=O)CCCc1ccc(C(C)(C)C)cc1)C(=O)O)NC(=O)[C@H](CCCN)NC(=O)[C@H](CC(=O)O)NC(=O)[C@H](CC(C)C)NC(=O)[C@](C)(CC(C)C)NC(=O)[C@@H](NC(=O)[C@H](CO)NC(=O)[C@H](Cc1ccncc1)NC(=O)[C@H](CC(=O)O)NC(=O)[C@H](CO)NC(=O)[C@@H](NC(=O)[C@](C)(Cc1ccccc1F)NC(=O)[C@@H](NC(=O)CNC(=O)[C@H](CCC(=O)O)NC(=O)C(C)(C)NC(=O)[C@@H](N)Cc1ccc(O)cc1)[C@@H](C)O)[C@@H](C)O)[C@@H](C)CC)[C@@H](C)CC)C(=O)N[C@@H](CCC(=O)O)C(=O)NCC(=O)NCC(=O)N1CCC[C@H]1C(=O)N[C@@H](CO)C(=O)N[C@@H](CO)C(=O)NCC(=O)N[C@@H](C)C(=O)N1CCC[C@H]1C(=O)N1CCC[C@H]1C(=O)N1CCC[C@H]1C(=O)N[C@@H](CO)C(N)=O [Example 68] | 92.4 |  | 0.0105 | > 9950 | > 9950 | 5.79 |  | 0.0831 | 95.9 |  |  |  |  |  |  |  | 
CC[C@H](C)[C@H](NC(=O)[C@H](CCCN)NC(=O)[C@H](CC(=O)O)NC(=O)[C@H](CC(C)C)NC(=O)[C@](C)(CC(C)C)NC(=O)[C@@H](NC(=O)[C@H](CO)NC(=O)[C@H](Cc1ccncc1)NC(=O)[C@H](CC(=O)O)NC(=O)[C@H](CO)NC(=O)[C@@H](NC(=O)[C@](C)(Cc1ccccc1F)NC(=O)[C@@H](NC(=O)CNC(=O)[C@H](CCC(=O)O)NC(=O)C(C)(C)NC(=O)[C@@H](N)Cc1ccc(O)cc1)[C@@H](C)O)[C@@H](C)O)[C@@H](C)CC)C(=O)N[C@@H](C)C(=O)N[C@@H](CCC(N)=O)C(=O)NC(C)(C)C(=O)N[C@@H](CCCCNC(=O)COCCOCCNC(=O)COCCOCCNC(=O)CC[C@H](NC(=O)CCCCCCCCCCCCC(=O)O)C(=O)O)C(=O)N[C@@H](Cc1ccccc1)C(=O)N[C@H](C(=O)N[C@@H](CCCCNC(=O)COCCOCCNC(=O)COCCOCCNC(=O)CC[C@H](NC(=O)CCCCCCCCCCCCC(=O)O)C(=O)O)C(=O)N[C@@](C)(Cc1ccc(O)cc1)C(=O)N[C@@H](CC(C)C)C(=O)N[C@H](C(=O)N[C@@H](CCC(=O)O)C(=O)NCC(=O)NCC(=O)N1CCC[C@H]1C(=O)N[C@@H](CO)C(=O)N[C@@H](CO)C(=O)NCC(=O)N[C@@H](C)C(=O)N1CCC[C@H]1C(=O)N1CCC[C@H]1C(=O)N1CCC[C@H]1C(=O)N[C@@H](CO)C(N)=O)[C@@H](C)CC)[C@@H](C)CC [Example 69] |  |  |  |  |  |  |  |  |  |  | 86.8 | 99 ± 2.43 | 2.32 | 0.0265 | > 9950 | > 9950 | 18.9
CC[C@H](C)[C@H](NC(=O)[C@H](CCCN)NC(=O)[C@H](CC(=O)O)NC(=O)[C@H](CC(C)C)NC(=O)[C@](C)(CC(C)C)NC(=O)[C@@H](NC(=O)[C@H](CO)NC(=O)[C@H](Cc1ccncc1)NC(=O)[C@H](CC(=O)O)NC(=O)[C@H](CO)NC(=O)[C@@H](NC(=O)[C@](C)(Cc1ccccc1F)NC(=O)[C@@H](NC(=O)CNC(=O)[C@H](CCC(=O)O)NC(=O)C(C)(C)NC(=O)[C@@H](N)Cc1ccc(O)cc1)[C@@H](C)O)[C@@H](C)O)[C@@H](C)CC)C(=O)N[C@@H](C)C(=O)N[C@@H](CCC(N)=O)C(=O)NC(C)(C)C(=O)N[C@@H](CCC(=O)O)C(=O)N[C@@H](Cc1ccccc1)C(=O)N[C@H](C(=O)N[C@@H](CCCCNC(=O)COCCOCCNC(=O)COCCOCCNC(=O)CC[C@H](NC(=O)CCCCCCCCCCCCC(=O)O)C(=O)O)C(=O)N[C@@](C)(Cc1ccc(O)cc1)C(=O)N[C@@H](CC(C)C)C(=O)N[C@H](C(=O)N[C@@H](CCC(=O)O)C(=O)NCC(=O)NCC(=O)N[C@@H](CCCCNC(=O)COCCOCCNC(=O)COCCOCCNC(=O)CC[C@H](NC(=O)CCCCCCCCCCCCC(=O)O)C(=O)O)C(=O)N[C@@H](CO)C(=O)N[C@@H](CO)C(=O)NCC(=O)N[C@@H](C)C(=O)N1CCC[C@H]1C(=O)N1CCC[C@H]1C(=O)N1CCC[C@H]1C(=O)N[C@@H](CO)C(N)=O)[C@@H](C)CC)[C@@H](C)CC [Example 71] |  | 93.8 ± 3.59 |  | > 9950 | > 9950 | 43.7 | 100 | 3.07 |  | 0.246 |  |  |  |  |  |  | 
